Results as given in US20150037821A1, “METHODS OF IDENTIFYING HIT-ANTIBODIES AND PF4 ANTAGONISTS AND CELL LINES FOR USE THEREIN” (THE TRUSTEES OF THE UNIVERSITY OF PENNSYLVANIA, priority 2012, published 2015).

B1: PF4: platelet factor 4, 70 amino acid, lysine-rich 7.8 kDa platelet-specific CXC chemokine protein (protein, UniProt P02776 32-101, looked up)
Platelet factor 4: EAEEDGDLQCLCVKTTSQVRPRHITSLEVIKAGPHCPTAQLIATLKNGRKICLDLQAPLYKKIIKKLLES

What was measured:
[1] = target: T1, PF4 (Homo sapiens, UniProt P02776); assay: DT40 cell (FcγRIIA + NFAT-Luc reporter) activation assay: inhibition by PF4 antagonists; type: cell-based; conditions: for IC50: PF4 10 μg/mL, heparin 0.3 U/mL, KKO 20 μg/mL, luciferase readout after 6 hours; for inhibition of FcγRIIA-dependent cellular activation (in words): activation by KKO, dose-response, FIG. 1C
T1 construct: platelet factor 4 which is a 70 amino acid, lysine-rich, 7.8 kDa platelet-specific protein; made in house; host or cells: Drosophila Schneider 2 (S2) cells
T1 sequence (P02776 32-101): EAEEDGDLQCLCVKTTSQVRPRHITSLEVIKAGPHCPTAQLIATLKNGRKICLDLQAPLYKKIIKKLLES
Method: (§1) DT40 cells (chicken B cells) were cultured in RPMI supplemented with 10% fetal bovine serum, 1% chicken serum (Gibco), 50 μM 13-mercaptoethanol, 2 mM GlutaMAX (Gibco), 100 U/mL penicillin and 100 U/mL streptomycin at 37° C. under 5% CO2. Cells were co-transfected with 5 μg pEF6-FcγRIIA and 20 μg pEF6-NFAT-Luc by electroporation. Positive transformants were selected using blastidicin.
On day following transfection, cells were pelleted by centrifugation and re-suspended at 2×10^6 cells/mL in fresh medium without serum. Cell aliquots (50 μL) were placed into each well of a 96 well plate. To establish basal expression, 50 μL media was added. Further, the cells were also incubated independently with the following: PF4, heparin, RTO antibody, KKO antibody, ULCs alone, ULCs and RTO; ULCs and KKO and IV.3 antibody. Monoclonal antibody IV.3 (an FcγRIIA-blocking antibody) was used in combination with an anti-Fc antibody to activate FcγRIIA bound by IV.3 as a positive control for FcγRIIA signaling. 8 μg/mL of IV.3 was added for 15 minutes at 37° C. under 5% CO2, followed by 50 μL of sheep anti-mouse-IgG secondary antibody at 15 μg/mL to crosslink and activate these receptors. As a positive control for an intact intracellular signaling pathway, phorbol myristate acetate (PMA; 25 ng/mL) with ionomycin (1 μM) was added (not shown).
We then used this assay to measure the inhibitory capacity of the PF4 antagonist compounds described in the concurrently filed related application referenced above. PF4 (10 μg/mL) and various concentrations of potential antagonists were co-incubated for 60 min at 37° C. under 5% CO2 followed by the addition of heparin (0.3 U/mL) for 15 min at 37° C. in 5% CO2. KKO (20 μg/mL) or plasma from patients with serotonin release assay confirmed HIT (1:800 dilution) was then added. 50 μL of each mixture was added to the 96 well plate containing 50 μL of cells at a concentration of 2×10^6 cells/mL in fresh medium without serum. Plates were incubated for 6 hours at 37° C. under 5% CO2, and then frozen at −80° C. To measure activation, cells were thawed and lysed with 5× Passive Lysis Buffer (Promega) for 15 minutes. Luciferase activity was measured on a Berthold MultiLumat LB 9506 Luminometer (10 sec readings) using Promega's Luciferase Assay Reagent following the manufacturer's instructions. In other experiments, PF4 antagonists discussed herein were incubated with PF4 for 5 minutes with the same results.

[2] = system: platelets; assay: Serotonin release assay with 14C-labeled platelets; type: cell-based, human; conditions: for inhibition of platelet activation by KKO (release of 14C-serotonin): KKO 170 μg/mL, heparin 1.0 U/mL, antagonists 2.5 mM, FIG. 1E
Method: To confirm the results of the novel assay, an independent, orthogonal assessment of activity was performed using a serotonin release assay. Serotonin release assays are described in Hirschman, “The use of platelet serotonin release as a sensitive method for detecting anti-platelet antibodies and a plasma anti-platelet factor in patients with idiopathic thrombocytopenic purpura”, Br. J. Haematol., 24(6):793-802 (1973), and Rauova and Cines, “Heparin-associated thrombocytopenia”, N. Engl. J. Med., 303:788-795 (1980), which are hereby incorporated by reference.
Briefly, platelet rich plasma (PRP) from healthy donors was incubated with 0.5 μL ^14C-5-hydroxytryptamine creatinine sulfate (GE Life Sciences, Piscataway, N.J.) per milliliter of PRP for 20 minutes at 37° C. to produce ^14C-labeled platelets. Serotonin uptake was inhibited by adding […] imipramine (Sigma-Aldrich, St. Louis, Mo.) to the PRP.
The radiolabeled platelets were mixed with KKO (170 μg/mL) or with known platelet-activating HIT plasma in the absence (buffer control) or presence of PF4 antagonist compounds 1, 34, 80, 101, and 96. Assays were performed in the presence of heparin (1.0 U/mL) and in the absence of heparin (background). Negative controls without antibody were studied in parallel. Data are expressed as % maximal release of radioactivity with release by the positive control plasma and 1.0 U/mL heparin defined as 100%.

[3] = system: FcγRIIA; assay: Activation of DT40 cells transfected with FcγRIIA and a Luc reporter; type: cell-based, human; conditions: FIG. 1A
Method: B cells used in the novel assays of the invention were prepared as follows. NFAT-Luc was kindly provided by Prof Arthur Weiss (Shapiro, “c-rel Regulation of IL-2 gene expression may be mediated through activation of AP-1”, J. Exp. Med., 184(5):1663-1669 (1996), hereby incorporated by reference). The NFAT reporter contains three copies of a composite NFAT-activator protein-1 (AP-1) element from the human interleukin-2 (IL-2) gene promoter, and is activated by binding of NFAT (nuclear factor of activated T-cells). pEF6-FcγRIIA, which contains the human FcγRIIA coding sequence under the control of the human EF-1a promoter, was constructed by cloning a human FcγRIIA IMAGE clone into the multiple cloning site of pEF6c (Invitrogen).
as §1, with “blastidicin. […]” for “blastidicin.”
It was next examined whether FcγRIIA activation was heparin-dependent. To do so, activation by KKO was measured using a constant amount of PF4 and increasing amounts of heparin. […]

Molecule	inhibition of DT40 activation by human HIT plasma ([1]; HIT plasma 1:800 dilution, similar potency as activation by KKO, FIG. 1D)	IC50 [1] [µM]	inhibition of FcγRIIA-dependent cellular activation (in words) [1]	inhibition of DT40 activation by KKO and patient samples ([1]; antagonist concentration 500 μM, KKO and plasma from three HIT patients, FIG. 1D)	inhibition of serotonin release from platelets activated by plasma from patients with HIT ([2]; HIT plasma, several antagonist concentrations, FIG. 1F)	inhibition of platelet activation by KKO (release of 14C-serotonin) [2]	activation of FcγRIIA-expressing DT40 cells, substance added alone [3]
CCOC(=O)Cn1c(CCC(=O)O)ccc1-c1ccc(Cl)cc1 [Compound 101]	inhibited	100	complete inhibition	completely inhibited	inhibited	inhibited	
O=C(O)c1ccccc1OP(=O)(O)O [Compound 96]		500	less potent			inhibited	
O=C(O)CCc1ccc(-c2ccc(Cl)cc2)n1CC(=O)O [Compound 80]		440	less potent			inhibited	
CC(=O)C1=C(O)c2cc([N+](=O)[O-])ccc2C1=O [Compound 1]		33					
O=C1CC([PH](=O)O)CO1 (stereo not shown) [Compound 34]		> 500	not inhibitory				
B1							did not activate
